These results are taken from the NIST ThermoML archive (doi:10.1021/je0201119).

The structures appear in SMILES notation. ± gives the expanded uncertainty stated by the source.

Data set [1] is described as follows: xn = mol fraction of the nth substance listed. As to conditions: 92 kPa, Liquid, x2 = 0; for mass density: Vibrating tube method.
The conditions of data set [2]: 92 kPa, Liquid; for mass density: Vibrating tube method.

Take `O` [water] + CC(C)(N)CO: the viscosity (in general, the internal friction of a fluid under shear) was determined as 0.89 ± 0.089 mPa·s in data set [1] (298.15 K); 0.805 ± 0.082 mPa·s in data set [1] (303.15 K); 0.653 ± 0.069 mPa·s in data set [1] (313.15 K); 0.547 ± 0.06 mPa·s in data set [1] (323.15 K); 0.466 ± 0.053 mPa·s in data set [1] (333.15 K); 0.405 ± 0.047 mPa·s in data set [1] (343.15 K). Moreover, the mass density (as a rule, the mass of a sample divided by its volume) in data set [1] (323.15 K) turned out to be 988.04 ± 0.06 kg/m3; in data set [1] (333.15 K), 983.12 ± 0.06 kg/m3; in data set [1] (343.15 K), 977.77 ± 0.06 kg/m3.
As to `O` [water], the viscosity in data set [2] (298.15 K) amounted to 0.89 ± 0.089 mPa·s; in data set [2] (303.15 K), 0.805 ± 0.082 mPa·s; in data set [2] (313.15 K), 0.653 ± 0.069 mPa·s; in data set [2] (323.15 K), 0.547 ± 0.06 mPa·s; in data set [2] (333.15 K) it was 0.466 ± 0.053 mPa·s; in data set [2] (343.15 K), 0.405 ± 0.047 mPa·s. Moreover, the mass density in data set [2] (323.15 K) was 988.04 ± 0.06 kg/m3; in data set [2] (333.15 K) it was 983.12 ± 0.06 kg/m3; in data set [2] (343.15 K) it was 977.77 ± 0.06 kg/m3.
For the molecule `CC(C)(N)CO` [2-amino-2-methylpropan-1-ol], the viscosity is listed as 47.8 ± 3.2 mPa·s in data set [2] (313.15 K), 25.1 ± 1.7 mPa·s in data set [2] (323.15 K), 14.4 ± 1 mPa·s in data set [2] (333.15 K) and 8.91 ± 0.69 mPa·s in data set [2] (343.15 K). Also, the mass density amounted to 919.65 ± 1.4 kg/m3 in data set [2] (313.15 K), 911.24 ± 1.4 kg/m3 in data set [2] (323.15 K), 902.87 ± 1.4 kg/m3 in data set [2] (333.15 K) and 894.28 ± 1.4 kg/m3 in data set [2] (343.15 K).
